Results: ChEMBL document CHEMBL3621110, “Discovery and Development of the Aryl O-Sulfamate Pharmacophore for Oncology and Women's Health” (J Med Chem, 2015)
Each block holds one molecule with its values, some of them ahead of it.

How the values were obtained:
Rattus norvegicus [1] = species on record: Rattus norvegicus; experiment: animal or person; type: functional; conditions: Wistar, po, 3 h
Rattus norvegicus [2] = species on record: Rattus norvegicus; experiment: animal or person; type: functional; conditions: Wistar, Liver, po
Aromatase = target: T1, Aromatase (Homo sapiens, UniProt P11511)
T1 sequence (P11511 whole entry): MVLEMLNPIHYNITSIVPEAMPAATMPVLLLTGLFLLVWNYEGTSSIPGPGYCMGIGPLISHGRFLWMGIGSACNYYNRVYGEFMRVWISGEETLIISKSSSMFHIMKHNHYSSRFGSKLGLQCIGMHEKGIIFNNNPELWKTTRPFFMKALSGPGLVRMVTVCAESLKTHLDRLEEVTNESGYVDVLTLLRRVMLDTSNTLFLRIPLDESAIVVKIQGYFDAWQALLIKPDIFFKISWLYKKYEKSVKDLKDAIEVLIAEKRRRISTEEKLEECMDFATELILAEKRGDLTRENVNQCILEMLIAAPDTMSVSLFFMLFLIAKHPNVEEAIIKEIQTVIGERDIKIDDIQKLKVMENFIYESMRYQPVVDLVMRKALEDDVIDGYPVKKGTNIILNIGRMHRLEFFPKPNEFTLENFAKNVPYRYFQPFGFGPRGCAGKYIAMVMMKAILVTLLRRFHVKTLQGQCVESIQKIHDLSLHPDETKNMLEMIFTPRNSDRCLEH

Steryl-sulfatase [3] = target: T2, Steryl-sulfatase (Homo sapiens, UniProt P08842)
T2 sequence (P08842 whole entry): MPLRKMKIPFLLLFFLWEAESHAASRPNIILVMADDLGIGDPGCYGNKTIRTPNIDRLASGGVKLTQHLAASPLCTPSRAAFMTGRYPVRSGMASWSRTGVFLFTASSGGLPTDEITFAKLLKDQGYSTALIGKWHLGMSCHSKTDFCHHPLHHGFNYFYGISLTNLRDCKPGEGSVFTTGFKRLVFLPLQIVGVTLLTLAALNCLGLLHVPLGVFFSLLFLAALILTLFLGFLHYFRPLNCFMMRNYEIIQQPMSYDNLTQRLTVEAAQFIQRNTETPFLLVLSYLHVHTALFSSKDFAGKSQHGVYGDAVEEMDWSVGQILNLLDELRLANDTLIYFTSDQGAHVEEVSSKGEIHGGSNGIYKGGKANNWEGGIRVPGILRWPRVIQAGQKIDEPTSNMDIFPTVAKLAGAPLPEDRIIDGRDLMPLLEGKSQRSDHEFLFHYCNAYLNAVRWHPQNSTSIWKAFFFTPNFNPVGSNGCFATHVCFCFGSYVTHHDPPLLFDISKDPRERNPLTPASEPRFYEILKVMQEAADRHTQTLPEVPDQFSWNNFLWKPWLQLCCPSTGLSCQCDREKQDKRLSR

MDA-MB-231 [4] = experiment: cells; type: functional; conditions: Homo sapiens, MDA-MB-231, 96 h
DU-145 [5] = experiment: cells; type: functional; conditions: Homo sapiens, DU-145, 96 h
MDA-MB-231 [6] = experiment: cells; type: functional; conditions: Homo sapiens
DU-145 [7] = experiment: cells; type: functional; conditions: Homo sapiens
MDA-MB-231 [8] = experiment: animal or person; type: functional, Homo sapiens; conditions: Mus musculus, MDA-MB-231, po, 840 h
Carbonic anhydrase 2 = Carbonic anhydrase 2 (Homo sapiens, UniProt P00918)
Steryl-sulfatase [9] = target: T2, Steryl-sulfatase; type: cell-based, HEK293
Estrogen receptor = target: T3, Estrogen receptor (Homo sapiens, UniProt P03372)
T3 sequence (P03372 whole entry): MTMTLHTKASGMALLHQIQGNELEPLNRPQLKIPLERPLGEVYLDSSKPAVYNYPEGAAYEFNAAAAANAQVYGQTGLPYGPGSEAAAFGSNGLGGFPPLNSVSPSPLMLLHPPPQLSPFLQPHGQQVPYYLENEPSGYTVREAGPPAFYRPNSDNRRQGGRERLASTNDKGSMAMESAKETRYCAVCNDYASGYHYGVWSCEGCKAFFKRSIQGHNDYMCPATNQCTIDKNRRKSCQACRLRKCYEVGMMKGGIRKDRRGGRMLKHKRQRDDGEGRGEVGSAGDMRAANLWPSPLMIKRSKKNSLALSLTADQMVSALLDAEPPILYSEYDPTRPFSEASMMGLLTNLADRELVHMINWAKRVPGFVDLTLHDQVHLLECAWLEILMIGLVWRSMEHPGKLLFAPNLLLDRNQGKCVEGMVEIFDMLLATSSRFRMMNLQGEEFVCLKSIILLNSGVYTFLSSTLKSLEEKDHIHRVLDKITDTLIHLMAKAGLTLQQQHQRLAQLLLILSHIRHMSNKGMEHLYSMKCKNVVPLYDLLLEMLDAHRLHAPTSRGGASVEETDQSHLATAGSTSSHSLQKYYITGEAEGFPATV

Rattus norvegicus [10] = species on record: Rattus norvegicus; experiment: animal or person; type: functional; conditions: Wistar, Liver, po, 24 h
Rattus norvegicus [11] = species on record: Rattus norvegicus; experiment: animal or person; type: functional; conditions: Wistar, Liver, po, 24 h; remark: listed apart in the source
MCF7 [12] = experiment: animal or person; type: functional, Homo sapiens; conditions: Mus musculus, MCF7, po, 1176 h
in vivo = conditions: Wistar, rat, po, 10 mg/kg
Steryl-sulfatase [13] = target: T2, Steryl-sulfatase; set-up: species or system Placenta, Microsome
MCF7 [14] = experiment: animal or person; type: functional, Homo sapiens; conditions: Mus musculus, MCF7, po, 1176 h; remark: listed apart in the source
Homo sapiens [15] = species on record: Homo sapiens; type: functional; conditions: at 5 mg/day
Homo sapiens [16] = species on record: Homo sapiens; type: functional; conditions: at 80 mg/day
Homo sapiens [17] = species on record: Homo sapiens; type: functional
Rattus norvegicus [18] = species on record: Rattus norvegicus; experiment: animal or person; type: functional; conditions: Wistar, Liver, sc, 168 h
Rattus norvegicus [19] = species on record: Rattus norvegicus; experiment: animal or person; type: functional; conditions: po, 2 h
Homo sapiens [20] = species on record: Homo sapiens; type: functional; remark: listed apart in the source
Rattus norvegicus [21] = species on record: Rattus norvegicus; experiment: animal or person; type: functional; conditions: Liver, po, 2 h
Rattus norvegicus [22] = species on record: Rattus norvegicus; experiment: animal or person; type: functional; conditions: Liver, po, 2 h; remark: listed apart in the source
Homo sapiens [23] = species on record: Homo sapiens; type: functional; remark: listed apart in the source
Rattus norvegicus [24] = species on record: Rattus norvegicus; experiment: animal or person; type: functional; conditions: po, 2 h; remark: listed apart in the source
Homo sapiens [25] = species on record: Homo sapiens; type: functional; remark: listed apart in the source
Rattus norvegicus [26] = species on record: Rattus norvegicus; experiment: animal or person; type: functional; conditions: Wistar, Liver, sc, 168 h; remark: listed apart in the source
Rattus norvegicus [27] = species on record: Rattus norvegicus; experiment: animal or person; type: functional; conditions: Liver, po, 2 h; remark: listed apart in the source
MCF7 [28] = experiment: cells; type: functional; conditions: Homo sapiens
Rattus norvegicus [29] = species on record: Rattus norvegicus; experiment: animal or person; type: functional; conditions: po, 2 h; remark: listed apart in the source
Rattus norvegicus [30] = species on record: Rattus norvegicus; experiment: animal or person; type: functional; conditions: Liver, po, 120 h
MCF7 [31] = experiment: animal or person; type: functional, Homo sapiens; conditions: Mus musculus, MCF7, po, 1176 h; remark: listed apart in the source
Steryl-sulfatase [32] = target: T2, Steryl-sulfatase; type: microsomes, Placenta, Microsome
MCF7 [33] = experiment: animal or person; type: functional, Homo sapiens; conditions: Mus musculus, MCF7, po, 1176 h; remark: listed apart in the source

GI50 (MDA-MB-231 [6]): 329 nM | GI50 (DU-145 [7]): 297 nM
Compound: COc1cc2c(cc1OS(N)(=O)=O)CCN(Cc1cc(OC)c(OC)c(OC)c1)C2
inhibition in vivo at 20 mg/kg/day (MDA-MB-231 [8]): 84%

IC50 (Steryl-sulfatase [9]): 300 nM | IC50 (Estrogen receptor): 3.1 µM
Compound: CCN(Cc1ccc(C(=O)N2CCc3ccc(OS(N)(=O)=O)cc3C2)cc1)Cc1ccccn1

GI50 (MCF7 [28]): 22.8 µM
Compound: C[C@]12CC[C@@H]3c4ccc(OS(N)(=O)=O)cc4CC[C@H]3[C@@H]1CCC2=O [EMATE]
inhibition (INH) (Homo sapiens [17]): 34% | inhibition in vivo at 0.1 mg/kg (Rattus norvegicus [18]): 87% | inhibition in vivo at 20 mg/kg (Rattus norvegicus [19]): 98% | inhibition (INH) (Homo sapiens [20]): 41% | inhibition in vivo at 40 mg/kg (Rattus norvegicus [21]): 98% | inhibition in vivo at 10 mg/kg (Rattus norvegicus [22]): 98% | inhibition (INH) (Homo sapiens [23]): 50% | inhibition in vivo at 10 mg/kg (Rattus norvegicus [24]): 98% | inhibition (INH) (Homo sapiens [25]): 72% | inhibition in vivo at 0.1 mg/kg (Rattus norvegicus [26]): 87% | inhibition in vivo at 20 mg/kg (Rattus norvegicus [27]): 98% | inhibition in vivo at 40 mg/kg (Rattus norvegicus [29]): 98%

More lines, now with the values behind:

Compound: N#Cc1ccc(N(Cc2ccc(Br)cc2)n2cnnc2)cc1
inhibition in vivo at 10 mg/kg (Rattus norvegicus [1]): 70% | inhibition in vivo at 10 mg/kg (Rattus norvegicus [2]): ≥ 98% | IC50 (Aromatase): 0.12 nM

Compound: CC(C)(C#N)c1cc(Cn2cncn2)cc(Sc2ccc(OS(N)(=O)=O)c(Cl)c2)c1
IC50 (Steryl-sulfatase [3]): 3 µM

Compound: CCN(CC)CCOCC[C@@]1(C)CC[C@H]2[C@@H]3[C@H](C)Cc4cc(OS(N)(=O)=O)ccc4[C@H]3CC[C@@]21C
GI50 (MDA-MB-231 [4]): 71 nM | GI50 (DU-145 [5]): 51 nM

Compound: CCc1cc2c(cc1OS(N)(=O)=O)CC[C@@H]1[C@@H]2CC[C@]2(C)[C@@H](OS(N)(=O)=O)CC[C@@H]12
Ki (Carbonic anhydrase 2): 232 nM

Compound: NS(=O)(=O)Oc1ccc(C(=O)c2ccc(OS(N)(=O)=O)cc2)cc1
inhibition in vivo at 10 mg/kg (Rattus norvegicus [10]): 93% | inhibition in vivo at 1 mg/kg (Rattus norvegicus [11]): 84%

Compound: NS(=O)(=O)Oc1ccc2c(c1)OC(=O)C1CCCCCC21 (configuration not stated)
inhibition in vivo at 20 mg/kg (MCF7 [12]): 39% | bioavailability (in vivo): 95% | IC50 (Steryl-sulfatase [13]): 8 nM | inhibition in vivo at 20 mg/kg (MCF7 [14]): 79% | inhibition (INH) (Homo sapiens [15]): >=95% | inhibition (INH) (Homo sapiens [16]): >=95%

Compound: CCCN1C(=O)C[C@H]2[C@@H]3CCc4cc(OS(N)(=O)=O)ccc4[C@H]3CC[C@]2(C)C1=O
inhibition in vivo at 10 mg/kg/day (Rattus norvegicus [30]): 99% | inhibition in vivo at 10 mg/kg (MCF7 [31]): 39% | IC50 (Steryl-sulfatase [32]): 1 nM | inhibition in vivo at 10 mg/kg (MCF7 [33]): 56%
